From ChEMBL document CHEMBL5465560, “Selectivity Literature for EUbOPEN Chemogenomic Library” (2024) come the findings set out here.

Some results are limits rather than exact numbers.

The target of assay [1] is Platelet-derived growth factor receptor beta (Homo sapiens, UniProt P09619). As to the kind of experiment: Selectivity interaction (KinomeScan (DiscoverX)) EUB0000595a PDGFRB. Particulars: at 10 µM.
In assay [2] the target is T1, Serine/threonine-protein kinase TBK1 (Homo sapiens) (UniProt Q9UHD2).
T1 sequence (whole entry): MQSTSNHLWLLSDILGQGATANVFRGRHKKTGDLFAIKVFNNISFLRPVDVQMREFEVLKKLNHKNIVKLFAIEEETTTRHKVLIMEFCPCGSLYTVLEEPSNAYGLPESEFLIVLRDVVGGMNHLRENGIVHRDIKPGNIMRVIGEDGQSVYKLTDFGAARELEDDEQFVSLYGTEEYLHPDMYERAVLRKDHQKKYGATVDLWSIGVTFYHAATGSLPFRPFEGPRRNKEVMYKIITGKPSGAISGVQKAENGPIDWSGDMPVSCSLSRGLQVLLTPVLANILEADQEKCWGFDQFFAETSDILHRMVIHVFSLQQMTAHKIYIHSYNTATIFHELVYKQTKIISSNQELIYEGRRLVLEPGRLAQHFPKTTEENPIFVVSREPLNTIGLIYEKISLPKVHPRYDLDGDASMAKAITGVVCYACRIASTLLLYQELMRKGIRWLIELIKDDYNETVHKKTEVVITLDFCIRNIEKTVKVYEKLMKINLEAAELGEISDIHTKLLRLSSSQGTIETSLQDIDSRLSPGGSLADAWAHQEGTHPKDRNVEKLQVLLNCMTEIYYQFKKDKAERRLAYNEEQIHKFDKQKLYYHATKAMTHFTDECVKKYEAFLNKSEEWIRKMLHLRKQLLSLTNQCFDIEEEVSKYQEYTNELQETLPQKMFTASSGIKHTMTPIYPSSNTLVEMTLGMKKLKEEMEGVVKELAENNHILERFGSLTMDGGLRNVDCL
The experiment in a line: Selectivity interaction (KinomeScan (DiscoverX)) EUB0000595a TBK1. Conditions: at 10 µM.

Assay [3] addresses Protein-tyrosine kinase 2-beta (Homo sapiens) (UniProt Q14289). The experiment in a line: Selectivity interaction (ActivX KiNativ screen (ex vivo kinase selectivity in human PBMCs)) EUB0001619a PTK2B. It is filed as cell-based. Conditions: PBMC, at 1 µM.
In assay [4] the target is Serine/threonine-protein kinase pim-2 (Homo sapiens, UniProt Q9P1W9). As to the kind of experiment: Selectivity interaction (KinomeScan (DiscoverX)) EUB0000666a PIM2. Conditions: at 10 µM.
Sequence of Serine/threonine-protein kinase pim-2 (Q9P1W9 whole entry, looked up): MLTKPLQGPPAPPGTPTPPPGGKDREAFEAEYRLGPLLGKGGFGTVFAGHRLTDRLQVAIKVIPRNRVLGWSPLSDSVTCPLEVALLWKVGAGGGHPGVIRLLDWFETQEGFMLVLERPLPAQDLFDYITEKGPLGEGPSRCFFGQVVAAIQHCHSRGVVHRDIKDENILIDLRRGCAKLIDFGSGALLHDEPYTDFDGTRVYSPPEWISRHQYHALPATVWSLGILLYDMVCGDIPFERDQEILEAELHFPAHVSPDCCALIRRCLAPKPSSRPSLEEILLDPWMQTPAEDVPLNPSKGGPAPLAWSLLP
For assay [5], the target named is T2, Interleukin-1 receptor-associated kinase 3 (Homo sapiens) (UniProt Q9Y616).
T2 sequence (whole entry): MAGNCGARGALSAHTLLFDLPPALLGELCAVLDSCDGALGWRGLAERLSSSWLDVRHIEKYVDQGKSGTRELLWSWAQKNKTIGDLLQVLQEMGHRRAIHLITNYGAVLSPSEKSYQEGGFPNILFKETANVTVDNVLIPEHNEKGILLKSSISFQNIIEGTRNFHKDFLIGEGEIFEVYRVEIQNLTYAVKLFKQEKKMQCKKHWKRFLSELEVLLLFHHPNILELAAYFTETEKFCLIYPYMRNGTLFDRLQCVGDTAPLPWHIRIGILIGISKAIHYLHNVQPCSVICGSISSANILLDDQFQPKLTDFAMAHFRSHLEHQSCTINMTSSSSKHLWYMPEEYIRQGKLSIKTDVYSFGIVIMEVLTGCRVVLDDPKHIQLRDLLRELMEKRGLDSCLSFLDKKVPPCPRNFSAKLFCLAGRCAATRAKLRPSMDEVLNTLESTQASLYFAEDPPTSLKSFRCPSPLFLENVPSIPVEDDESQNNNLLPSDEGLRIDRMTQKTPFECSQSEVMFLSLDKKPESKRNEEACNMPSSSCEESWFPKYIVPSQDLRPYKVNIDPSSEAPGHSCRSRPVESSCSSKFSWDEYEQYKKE
The experiment in a line: Selectivity interaction (ActivX KiNativ screen (kinase selectivity in THP-1 cell lysates)) EUB0000639a IRAK3. It is filed as subcellular. Particulars: lysate.

The target in assay [6] is Serine/threonine-protein kinase N1 (Homo sapiens, UniProt Q16512). The experiment in a line: Selectivity interaction (ActivX KiNativ screen (kinase selectivity in THP-1 cell lysates)) EUB0000639a PKN1. In kind it is subcellular. Particulars: lysate, at 1 µM.
Sequence of Serine/threonine-protein kinase N1 (Q16512 2-942 limits assumed): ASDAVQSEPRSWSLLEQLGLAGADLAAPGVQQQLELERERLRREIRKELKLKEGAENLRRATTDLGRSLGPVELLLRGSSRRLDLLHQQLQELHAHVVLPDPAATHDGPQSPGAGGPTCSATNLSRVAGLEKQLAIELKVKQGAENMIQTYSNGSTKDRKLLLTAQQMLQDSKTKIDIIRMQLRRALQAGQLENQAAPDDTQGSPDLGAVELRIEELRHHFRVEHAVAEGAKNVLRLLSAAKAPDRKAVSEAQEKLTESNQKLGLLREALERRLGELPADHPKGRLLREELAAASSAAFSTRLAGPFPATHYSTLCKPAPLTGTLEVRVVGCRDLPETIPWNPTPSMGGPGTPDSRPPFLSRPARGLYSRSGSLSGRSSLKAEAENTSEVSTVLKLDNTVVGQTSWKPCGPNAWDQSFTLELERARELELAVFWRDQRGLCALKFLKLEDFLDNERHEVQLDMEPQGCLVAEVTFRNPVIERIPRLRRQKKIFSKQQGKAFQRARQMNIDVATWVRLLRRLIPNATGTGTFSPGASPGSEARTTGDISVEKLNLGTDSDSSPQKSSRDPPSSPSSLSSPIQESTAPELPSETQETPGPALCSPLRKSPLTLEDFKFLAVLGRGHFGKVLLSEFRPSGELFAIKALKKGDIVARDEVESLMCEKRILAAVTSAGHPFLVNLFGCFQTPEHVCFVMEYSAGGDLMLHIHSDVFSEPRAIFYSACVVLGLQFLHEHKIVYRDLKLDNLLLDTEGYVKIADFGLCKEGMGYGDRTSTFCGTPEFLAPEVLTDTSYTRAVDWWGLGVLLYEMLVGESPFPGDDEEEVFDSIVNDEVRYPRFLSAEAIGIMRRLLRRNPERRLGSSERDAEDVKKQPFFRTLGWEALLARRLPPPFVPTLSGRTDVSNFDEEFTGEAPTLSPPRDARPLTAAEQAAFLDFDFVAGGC
For assay [7], the target named is Calcium/calmodulin-dependent protein kinase type II subunit delta (Homo sapiens) (UniProt Q13557). The experiment in a line: Selectivity interaction (ActivX KiNativ screen (kinase selectivity in THP-1 cell lysates)) EUB0000639a CAMK2D. In kind it is subcellular. Particulars: lysate.
Sequence of Calcium/calmodulin-dependent protein kinase type II subunit delta (Homo sapiens) (Q13557 whole entry): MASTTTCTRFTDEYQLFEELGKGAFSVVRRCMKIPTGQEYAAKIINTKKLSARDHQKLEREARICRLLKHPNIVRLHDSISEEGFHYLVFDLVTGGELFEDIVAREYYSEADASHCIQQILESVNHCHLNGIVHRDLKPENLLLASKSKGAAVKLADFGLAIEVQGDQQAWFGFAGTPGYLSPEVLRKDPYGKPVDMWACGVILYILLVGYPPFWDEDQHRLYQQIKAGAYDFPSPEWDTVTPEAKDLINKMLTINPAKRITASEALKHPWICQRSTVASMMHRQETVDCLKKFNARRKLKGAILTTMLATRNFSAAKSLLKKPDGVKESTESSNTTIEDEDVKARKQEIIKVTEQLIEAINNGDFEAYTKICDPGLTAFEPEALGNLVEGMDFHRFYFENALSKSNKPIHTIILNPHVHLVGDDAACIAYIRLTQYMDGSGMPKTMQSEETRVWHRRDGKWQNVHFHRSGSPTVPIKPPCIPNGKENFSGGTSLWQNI
Assay [8] has as its target T3, Bone morphogenetic protein receptor type-2 (Homo sapiens) (UniProt Q13873).
T3 sequence (whole entry): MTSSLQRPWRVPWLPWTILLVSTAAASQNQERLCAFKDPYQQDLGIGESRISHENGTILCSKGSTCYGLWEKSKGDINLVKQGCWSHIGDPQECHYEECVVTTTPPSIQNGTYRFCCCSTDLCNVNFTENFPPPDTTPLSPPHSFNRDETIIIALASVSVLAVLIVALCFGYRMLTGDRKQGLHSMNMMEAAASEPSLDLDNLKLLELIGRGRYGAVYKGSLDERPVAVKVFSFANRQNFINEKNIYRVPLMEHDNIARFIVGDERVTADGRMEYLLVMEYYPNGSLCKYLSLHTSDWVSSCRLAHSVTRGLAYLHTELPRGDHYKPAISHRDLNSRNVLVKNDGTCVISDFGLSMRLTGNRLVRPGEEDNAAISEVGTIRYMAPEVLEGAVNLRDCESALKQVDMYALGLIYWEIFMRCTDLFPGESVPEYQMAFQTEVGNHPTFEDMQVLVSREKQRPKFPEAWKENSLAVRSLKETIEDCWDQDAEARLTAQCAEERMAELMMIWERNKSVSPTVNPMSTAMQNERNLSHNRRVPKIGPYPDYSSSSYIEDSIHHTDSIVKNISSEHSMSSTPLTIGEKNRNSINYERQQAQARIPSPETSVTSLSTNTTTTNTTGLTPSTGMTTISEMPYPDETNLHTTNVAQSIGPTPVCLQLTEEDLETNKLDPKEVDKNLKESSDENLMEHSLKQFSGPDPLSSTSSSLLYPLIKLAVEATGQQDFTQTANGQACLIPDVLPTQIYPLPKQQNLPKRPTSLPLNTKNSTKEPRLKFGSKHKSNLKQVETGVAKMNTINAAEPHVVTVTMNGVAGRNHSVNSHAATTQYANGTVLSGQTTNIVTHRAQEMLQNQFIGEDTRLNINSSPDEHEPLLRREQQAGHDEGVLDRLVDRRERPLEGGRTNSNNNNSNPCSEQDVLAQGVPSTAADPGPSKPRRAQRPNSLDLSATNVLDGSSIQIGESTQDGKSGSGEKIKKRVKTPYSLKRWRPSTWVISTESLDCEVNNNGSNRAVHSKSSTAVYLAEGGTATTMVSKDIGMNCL
The experiment in a line: Selectivity interaction (KinomeScan (DiscoverX)) EUB0001079a BMPR2. Conditions: at 1 µM.

Sequence of Platelet-derived growth factor receptor beta (P09619 whole entry): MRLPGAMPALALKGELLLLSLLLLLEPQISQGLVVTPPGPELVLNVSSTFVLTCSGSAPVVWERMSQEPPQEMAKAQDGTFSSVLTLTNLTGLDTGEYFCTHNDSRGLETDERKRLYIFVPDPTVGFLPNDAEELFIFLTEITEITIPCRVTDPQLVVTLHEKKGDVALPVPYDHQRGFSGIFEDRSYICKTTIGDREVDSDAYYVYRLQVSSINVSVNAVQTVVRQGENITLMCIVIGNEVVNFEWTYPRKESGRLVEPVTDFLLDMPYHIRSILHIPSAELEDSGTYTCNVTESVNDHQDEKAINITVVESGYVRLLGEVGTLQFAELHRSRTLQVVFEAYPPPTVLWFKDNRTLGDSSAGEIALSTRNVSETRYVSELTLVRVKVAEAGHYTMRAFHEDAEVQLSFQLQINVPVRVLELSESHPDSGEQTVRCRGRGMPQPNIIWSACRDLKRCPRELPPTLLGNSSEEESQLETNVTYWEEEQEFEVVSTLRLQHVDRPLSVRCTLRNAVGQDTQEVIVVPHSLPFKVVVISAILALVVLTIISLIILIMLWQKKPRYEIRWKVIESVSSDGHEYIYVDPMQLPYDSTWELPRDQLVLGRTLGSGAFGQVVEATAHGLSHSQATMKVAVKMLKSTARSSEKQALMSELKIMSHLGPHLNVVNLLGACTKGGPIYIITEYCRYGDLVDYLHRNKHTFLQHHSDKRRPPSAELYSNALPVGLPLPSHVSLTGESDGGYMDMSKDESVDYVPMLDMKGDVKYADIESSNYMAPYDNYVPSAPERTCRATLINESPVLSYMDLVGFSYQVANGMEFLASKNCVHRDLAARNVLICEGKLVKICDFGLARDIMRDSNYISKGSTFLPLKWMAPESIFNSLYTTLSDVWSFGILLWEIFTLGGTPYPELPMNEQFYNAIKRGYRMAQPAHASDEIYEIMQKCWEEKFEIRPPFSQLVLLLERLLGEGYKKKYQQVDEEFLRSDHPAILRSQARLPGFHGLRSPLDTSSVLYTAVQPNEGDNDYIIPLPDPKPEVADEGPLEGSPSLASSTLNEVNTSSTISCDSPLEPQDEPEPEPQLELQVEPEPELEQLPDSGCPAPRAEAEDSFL
Sequence of Protein-tyrosine kinase 2-beta (Homo sapiens) (Q14289 whole entry, looked up): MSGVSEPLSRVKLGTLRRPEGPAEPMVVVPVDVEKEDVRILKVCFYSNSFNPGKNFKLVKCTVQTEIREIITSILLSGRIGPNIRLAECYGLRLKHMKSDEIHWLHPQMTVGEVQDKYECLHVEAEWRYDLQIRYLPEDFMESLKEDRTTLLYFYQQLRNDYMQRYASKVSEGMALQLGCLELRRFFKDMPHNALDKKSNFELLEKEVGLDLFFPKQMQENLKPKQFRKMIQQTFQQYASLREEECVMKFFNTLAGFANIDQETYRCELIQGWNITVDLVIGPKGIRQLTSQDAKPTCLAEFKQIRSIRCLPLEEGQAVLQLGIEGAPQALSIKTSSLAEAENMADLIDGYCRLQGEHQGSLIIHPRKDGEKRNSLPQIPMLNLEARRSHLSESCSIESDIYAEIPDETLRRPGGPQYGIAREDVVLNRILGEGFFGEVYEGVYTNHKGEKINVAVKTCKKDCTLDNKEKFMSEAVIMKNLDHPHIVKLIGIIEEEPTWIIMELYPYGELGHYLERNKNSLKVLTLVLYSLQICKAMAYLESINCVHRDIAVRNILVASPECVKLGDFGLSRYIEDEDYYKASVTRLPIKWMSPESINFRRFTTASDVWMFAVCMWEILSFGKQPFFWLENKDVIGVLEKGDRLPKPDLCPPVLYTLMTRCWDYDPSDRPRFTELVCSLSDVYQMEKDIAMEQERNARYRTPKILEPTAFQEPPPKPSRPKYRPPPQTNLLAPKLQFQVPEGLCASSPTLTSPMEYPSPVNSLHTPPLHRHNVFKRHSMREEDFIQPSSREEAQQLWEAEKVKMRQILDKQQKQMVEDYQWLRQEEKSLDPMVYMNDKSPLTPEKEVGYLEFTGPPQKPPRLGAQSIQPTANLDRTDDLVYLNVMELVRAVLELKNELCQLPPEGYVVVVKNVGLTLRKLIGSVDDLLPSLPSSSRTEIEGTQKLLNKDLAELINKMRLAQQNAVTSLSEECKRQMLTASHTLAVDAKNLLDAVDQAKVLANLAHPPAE

Consider `COCC(=O)NC/C=C/c1ccc2ncnc(Nc3ccc(Oc4ccc(C)nc4)c(C)c3)c2c1` [CP-724714], for which the % of control in assay [1] was determined as 46%; in assay [2] it was 90%.
On to `N#Cc1cccc(-c2c[nH]c3ncnc(N4CCOCC4)c23)c1`, for which, in assay [3], the % of inhibition came out at 3%.
In turn, `O=C(NOC[C@H](O)CO)c1ccc(F)c(F)c1Nc1ccc(I)cc1F` gave a % of control in assay [4] of 75%.
On to `CC[C@@H]1[C@H](F)C(=O)N[C@@H]1COc1nccc2cc(C(N)=O)c(OC)cc12` [ZIMLOVISERTIB], for which the % of inhibition in assay [5] (at 0.01 µM) is -3.6%; in assay [5] (at 0.04 µM), 31.1%; in assay [5] (at 0.2 µM), 72.5%; in assay [5] (at 1 µM), 89.6%; in assay [5] (at 5 µM) it was > 98%; in assay [6], -0.1%. Besides, the % of inhibition amounted to 14.2% in assay [7] (at 0.01 µM); 9.6% in assay [7] (at 0.04 µM); 16.3% in assay [7] (at 0.2 µM); 36.4% in assay [7] (at 1 µM); 61.2% in assay [7] (at 5 µM).
In turn, `Nc1cnc(N2CCc3cc(S(=O)(=O)Nc4c(F)cc(Cl)cc4F)cc(N4CCCC4=O)c32)nc1` [TP-020n] showed a % of control in assay [8] of 100%.
